Reference: patent US5179093A, “Quinoline-diones” (Schering Corporation, priority 1991, dated 1993)
Values after ≈ are worked out from the molar mass of the structure shown.

Tests used:
[1] = Compound toxicity assay: inhibition of HeLa cell translation (^3 H-LEU assay); format: cell-based; details: human; HeLa cells, overnight (24 hours) treatment, tritiated leucine incorporation; read-out: CYTOTOXICITY ^3 H--LEU ASSAY IC50
Procedure: HeLa cells were treated with inhibitory compound for 24 hours, after which levels of translational activity were assayed.
For assay of translational activity, HeLa cultures were grown to 80% confluency in 96 well microtiter plates, treated with appropriate concentrations of compound in 2% EMEM during an overnight incubation at 37° C., then rinsed with HBSS and overlaid with […] of 2% EMEM containing 8 uCi of tritiated leucine (^3 H-LEU, 141 Ci/mMol, Amersham Corp., Arlington Heights Ill.). After 1 hr incubation at 36.5° C., the cells were rinsed twice with phosphate buffered saline (PBS) and lysed in 400 ul/well of 1×PBS, 0.5% sodium dodecyl sulphate (SDS). After a 10 minute incubation at 36.5° C., the contents of the well were transferred to a well in a Millititer HA microfiltration plate (Millipore Corp., Bedford, MA). The TCA insoluble proteins were precipitated onto the filter disc by a 10 minute fixation with 5% TCA, followed by filtration under vacuum and three 10 minute rinses with 95% ethanol. The filters were dried at room temperature, cut from the milltitier plate and transferred to scintillation vials. TCA precipitable counts were assayed in 5 ml of Scintisol (Isolab, Akron, Ohio). The inhibitory activity of a compound was plotted versus the concentration and an IC50 value (that concentration of the compound required to decrease cellular translational activity by 50%) was derived for each compound.

HSV-2 (strain MS) = test: Transient expression of beta galactosidase in transfected HeLa cells superinfected with HSV-2 (HSV-β-GAL assay); format: cell-based; details: Human alphaherpesvirus 2, plasmid pON 245^ori-, moi=5 pfu/cell, 24 hours, read-out: ANTI-HSV ACTIVITY HSV-β-GAL ASSAY IC50
Procedure: HeLa and Vero cell cultures were maintained in Eagles Minimal Essential Medium (EMEM) which was supplemented with glutamine, penicillin, streptomycin and 10% fetal calf serum (10% EMEM). Stock cultures of HSV-2 (strain MS available from ATCC VR-540) were grown in and harvested from Vero cells. Viral stocks were titered in Vero cells according to established procedures.
Plasmid pON 245^ori- contains the promoter of the HSV-1 thymidine kinase (tk) gene located immediately 5' of the E. coli lac Z gene. In this arrangement, the tk promoter controls transcription from the bacterial gene in transient expression assays. Additionally, an SV40 polyadenylation signal is present at the 3' end of the lac Z gene to allow for the efficient translation of the mRNA in eucaryotic cells. The expression of beta galactosidase in a transient assay using pON 245^ori- is dependent upon superinfection of the transfected cells with HSV. […] For example see U.S. application Ser. No. 07/435,491 filed Sep. 5, 1989, the disclosure of which is incorporated herein by reference thereto.
HeLa cells were seeded into 96 well microtiter plates and allowed to grow to 80% confluency (approximately 35,000 cells/well). One half microgram of plasmid pON 245^ori- DNA was introduced into the cells of each well by the […] precipitation technique (Grahman and Van der Eb, 1973). Four to six hours later, the cells were rinsed with hank's Balanced Salt Solution (HBSS), overlaid with 10% EMEM and incubated at 37° C. At 24 hrs post-transfection, cells were rinsed, overlaid with 10% EMEM again and re-incubated at 37° C. At 48 hrs post-transfection, cells were rinsed and overlaid with either EMEM containing 2% fetal calf serum (2% EMEM), 2% EMEM containing HSV-2 (strain MS, Multiplicity of Infection [moi]=5 pfu/cell) or 2% EMEM containing HSV-2 and the appropriate concentration of Schering compound to be tested. Twenty-four hours later, the cells were harvested and assayed for beta galactosidase activity as described below.
All determinations of beta galactosidase activity were performed in 96 well microtiter plates. The intracellular level of beta galactosidase activity in each well was determined from cell lysates of the monolayer cultures. Aliquots were assayed by incubation in the presence of beta galactosidase substrate, 4-methylumbelliferyl-β-D-galactoside (MUG, 125 ug/ml, Sigma), for 2 hours. The generation of fluorescent product was quantified on a Microfluor microfluorimeter (Dynatech) after addition of 0.1M glycine, pH 10.3 (Spaete and Mocarski, 1985). The inhibitory activity of a compound was plotted versus the concentration and an IC50 value (the concentration of compound required to reduce beta glactosidase expression by 50%) was obtained for each compound tested.

SMILES | CC50 at 24 h [1] [µg/mL] | IC50 (HSV-2 (strain MS)) [µg/mL]
CN1C(=O)C(=CNCc2ccccc2)C(=O)c2ccccc21 [EX. 14, (E,Z) 1-Methyl-3-Benzylaminomethylene-Quinolin-2,4(1H)-Dione] | 27 (≈ 92.4 µM) | 9 (≈ 30.8 µM)
Cc1ccc2c(c1)C(=O)C(=CNCc1ccncc1)C(=O)N2Cc1ccccc1 [EX. 15, (E,Z)1-Benzyl-3-[4-Pyridylmethylamino)methylene]-6-Methyl-Quinolin-2,4(1H)-Dione] | 37 (≈ 96.5 µM) | 6 (≈ 15.6 µM)
O=C1C(=CNCc2ccccc2)C(=O)N(Cc2ccccc2)c2ccc(Cl)cc21 [EX. 16, (E,Z 1-Benzyl-3-Benzylaminomethylene-6-Chloro-Quinolin-2,4(1H)-Dione] | 7 (≈ 17.4 µM) | < 3
O=C1C(=CNCc2ccncc2)C(=O)N(Cc2ccccc2)c2ccc(Cl)cc21 [EX. 17, (E,Z1-Benzyl-3-[(4-Pyridylmethylamino)methylene-6-Chloro-Quinolin-2,4(1H)-Dione] | 17 (≈ 42.1 µM) | 4 (≈ 9.9 µM)
O=C1C(=CNCc2ccccc2)C(=O)N(Cc2ccccc2)c2cc(Cl)ccc21 [EX. 18, (E,Z)1-Benzyl-3-Benzylaminomethylene-7-Chloro-Quinolin-2,4(1H)-Dione] | 10 (≈ 24.8 µM) | 6 (≈ 14.9 µM)
O=C1C(=CNCc2ccncc2)C(=O)N(Cc2ccccc2)c2cc(Cl)ccc21 [EX. 19, (E,Z)1-Benzyl-3-[(4-Pyridylmethylamino)methylene]7-Chloro-Quinolin-2,4(1H)-Dione] | 40 (≈ 99 µM) | 13 (≈ 32.2 µM)
Cc1cccc2c1N(Cc1ccccc1)C(=O)C(=CNCc1ccccc1)C2=O [EX. 20, (E,Z) 1-Benzyl-3-Benzylaminomethylene-8-Methyl-Quinolin-2,4(1H)-Dione] | 10 (≈ 26.1 µM) | 3 (≈ 7.84 µM)
Cc1cccc2c1N(Cc1ccccc1)C(=O)C(=CNCc1ccncc1)C2=O [EX. 21, (E,Z)1-Benzyl-3-[(4-Pyridylmethylamino)methylene]-8-Methyl-Quinolin-2,4(1H)-Dione] | 29 (≈ 75.6 µM) | < 3
CN1C(=O)C(=CNCc2ccncc2)C(=O)c2ccccc21 [EX. 22, (E,Z)1-Methyl-3-[(4-Pyridylmethylamino)methylene]Quinolin-2,4(1H)-Dione] | 100 (≈ 341 µM) | < 3
O=C1C(=CNCc2ccncc2)C(=O)N(Cc2ccccc2)c2ccccc21 [EX. 24, (E,Z)1-Benzyl-3-[(4-Pyridylmethylamino)methylene]-Quinolin-2,4(1H)-Dione] | > 100 | 10 (≈ 27.1 µM)
CCCCCCN1C(=O)C(=CNCc2ccccc2)C(=O)c2ccccc21 [EX. 25, (E,Z)1-hexyl-3-benzyleminomethylene-quinolin-2,4(1H)-Dione] | 37 (≈ 102 µM) | < 3
CCCCCCN1C(=O)C(=CNCc2ccncc2)C(=O)c2ccccc21 [EX. 26, (E,Z)1Hexyl-3-[(4-Pyrigylmethylamino)methylene-Quinolin-2,4(1H)-Dione] | 43 (≈ 118 µM) | 4 (≈ 11 µM)
O=C1C(=CNCc2ccccc2)C(=O)N(c2ccccc2)c2ccccc21 [EX. 27, (E,Z)1-Phenyl-3-Benzylaminomethylene-Quinolin-2,4(1H)-Dione] | 10 (≈ 28.2 µM) | 4 (≈ 11.3 µM)
O=C1C(=CNCc2ccncc2)C(=O)N(c2ccccc2)c2ccccc21 [EX. 28, (E,Z)1-Phenyl-3-[(-Pyridylmethylamino)methylene]Quinolin-2,4(1H)-Dione] | 25 (≈ 70.3 µM) | 7 (≈ 19.7 µM)
CCCCCCCN1C(=O)C(=CNCc2ccccc2)C(=O)c2ccccc21 [EX. 29, (E,Z)1-Heptyl-3-Benzylaminomethylene-Quinolin-2,4(1H)-Dione] | 16 (≈ 42.5 µM) | 5 (≈ 13.3 µM)
CCCCCCCN1C(=O)C(=CNCc2ccncc2)C(=O)c2ccccc21 [EX. 30, (E,Z)1-Heptyl-3-[(4-Pyridylmethylamino)methylene]-Quinolin-2,4(1H)-Dione] | 20 (≈ 53 µM) | 3 (≈ 7.95 µM)
CCNC=C1C(=O)Oc2ncccc2C1=O [EX. 38, 3-(ethylaminomethylene)-2,4-dioxo 3,4-dihydro-2H-pyrido-[2,3-b]-pyran] | – | > 25
